The results in this text go back to ChEMBL document CHEMBL1131004, “Optimizing the binding of fullerene inhibitors of the HIV-1 protease through predicted increases in hydrophobic desolvation” (J Med Chem, 1998).

In the experiment the target is Human immunodeficiency virus type 1 protease (Human immunodeficiency virus 1, UniProt Q72874). The experiment is described as follows: Binding affinity towards HIV-1 Protease.

The term Ki denotes a dissociation constant, usually derived from enzyme kinetics or from competition with a known ligand. The low end stands for a stronger hold on the target, the high end for a looser hold on the target.

Molecule `O=C(O)CCC(=O)NCCc1ccc(C2(c3ccc(CCNC(=O)CCC(=O)O)cc3)C34c5c6c7c8c9c%10c(c%11c%12c3c3c5c5c%13c6c6c7c7c9c9c%14c%10c%10c%11c%11c%12c%12c3c3c5c5c%13c%13c6c6c7c9c7c9c%14c%10c%10c%11c%11c%12c3c3c5c5c%13c6c7c6c9c%10c%11c3c56)C824)cc1` showed a Ki of 5000 nM.
`CC(C)C1CC(O)C(C(C)C)C23c4c5c6c7c8c9c(c%10c%11c2c2c4c4c%12c5c5c6c6c8c8c%13c9c9c%10c%10c%11c%11c2c2c4c4c%12c%12c5c5c6c8c6c8c%13c9c9c%10c%10c%11c2c2c4c4c%12c5c6c5c8c9c%10c2c45)C713` (stereo not drawn) displayed an inhibition constant (Ki) of 150 nM.
Molecule `OC(c1ccccc1)C1(c2ccccc2)C23c4c5c6c7c8c9c(c%10c%11c2c2c4c4c%12c5c5c6c6c8c8c%13c9c9c%10c%10c%11c%11c2c2c4c4c%12c%12c5c5c6c8c6c8c%13c9c9c%10c%10c%11c2c2c4c4c%12c5c6c5c8c9c%10c2c45)C731` (stereo not drawn) registered a Ki of 103 nM.
